The assay has as its system L1210 leukemia ip in BDF1 mice, survival T/C. Briefly: NCI In Vivo Anticancer Drug Screen. Data for tumor model L1210 Leukemia (intraperitoneal) in B6D2F1 (BDF1) mice. The settings on record: endpoint: mean survival time, higher = longer survival. An outline of the steps:
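Ratio derived from survival: compound-dosed mice over vehicle-dosed mice, all bearing a transplantable tumor.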

[1] abbreviates: dose: 100.0 mg/kg/injection, schedule: Q01DX001 (ip), vehicle: saline.
The mark [2] stands for this setting: dose: 200.0 mg/kg/injection, schedule: Q01DX001 (ip), vehicle: saline.
Where [3] appears, read: dose: 400.0 mg/kg/injection, schedule: Q01DX001 (ip), vehicle: saline.
The mark [4] stands for this setting: dose: 100.0 mg/kg/injection, schedule: Q04DX003 (ip), vehicle: saline.
Where [5] appears, read: dose: 200.0 mg/kg/injection, schedule: Q04DX003 (ip), vehicle: saline.
Where [6] appears, read: dose: 100.0 mg/kg/injection, schedule: Q04DX003 (ip), vehicle: saline with Tween-80.
Setting [7] is: dose: 200.0 mg/kg/injection, schedule: Q04DX003 (ip), vehicle: saline with Tween-80.
Setting [8] is: dose: 400.0 mg/kg/injection, schedule: Q04DX003 (ip), vehicle: saline with Tween-80.
The mark [9] stands for this setting: dose: 100.0 mg/kg/injection, schedule: Q01DX001 (ip), vehicle: other.
Where [10] appears, read: dose: 200.0 mg/kg/injection, schedule: Q01DX001 (ip), vehicle: other.
Where [11] appears, read: dose: 400.0 mg/kg/injection, schedule: Q01DX001 (ip), vehicle: other.
Setting [12] is: dose: 400.0 mg/kg/injection, schedule: Q01DX001 (ip), vehicle: carboxymethylcellulose (CMC).
The mark [13] stands for this setting: dose: 100.0 mg/kg/injection, schedule: Q01DX009 (ip), vehicle: saline.
Where [14] appears, read: dose: 200.0 mg/kg/injection, schedule: Q01DX009 (ip), vehicle: saline.
Setting [15] is: dose: 100.0 mg/kg/injection, schedule: Q04DX003 (ip), vehicle: Klucel (hydroxypropylcellulose) (HPC).
Where [16] appears, read: dose: 200.0 mg/kg/injection, schedule: Q04DX003 (ip), vehicle: Klucel (hydroxypropylcellulose) (HPC).
Where [17] appears, read: dose: 400.0 mg/kg/injection, schedule: Q04DX003 (ip), vehicle: Klucel (hydroxypropylcellulose) (HPC).

Molecules are shown by their SMILES. Several values for one entry are separate records, joined by “and”; a condition that tells them apart may be missing. Equal entries are not always repeated. Toxic doses and inconclusive results are not listed.

In the case of `O=C(Oc1ccc(Br)cc1)c1cc([N+](=O)[O-])ccc1O`, the T/C is 98 % of control under setting [1], 104 % of control under setting [2] and 103 % of control under setting [3].
Take `NC(=O)COc1c(Cl)cc(Cl)cc1Cl`: the T/C (dose: 100.0 mg/kg/injection, schedule: Q04DX002 (ip), vehicle: saline with Tween-80) is 103 % of control; the T/C (dose: 200.0 mg/kg/injection, schedule: Q04DX002 (ip), vehicle: saline with Tween-80) was 103 % of control; the T/C (dose: 400.0 mg/kg/injection, schedule: Q04DX002 (ip), vehicle: saline with Tween-80) is 100 % of control.
Take `OCC1CCCN2CCCCC12` (stereo not drawn): the T/C under setting [4] was 98 % of control and the T/C under setting [5] was 90 % of control.
As for `CCCCCCCCCCN=C(N)CSSCC(N)=NCCCCCCCCCC`, the T/C was 95 % of control (dose: 0.39 mg/kg/injection, schedule: Q04DX002 (ip), vehicle: saline with Tween-80); 100 % of control (dose: 0.78 mg/kg/injection, schedule: Q04DX002 (ip), vehicle: saline with Tween-80); 105 % of control (dose: 1.56 mg/kg/injection, schedule: Q04DX002 (ip), vehicle: saline with Tween-80).
Turning to `CC(C)C(C=O)(CCN(C)Cc1ccccc1)c1cccc2ccccc12` (stereo not drawn), the T/C is, setting by setting: under setting [6], 93 % of control; under setting [7], 92 % of control; under setting [8], 100 % of control.
`CC12CCC(C1)C(C)(C)/C2=N\N=C(N)N` (stereo not drawn): the T/C by setting is: (dose: 15.0 mg/kg/injection, schedule: Q01DX Z (ip), vehicle: saline) 93 % of control; (dose: 30.0 mg/kg/injection, schedule: Q01DX Z (ip), vehicle: saline) 103 % of control; (dose: 60.0 mg/kg/injection, schedule: Q01DX Z (ip), vehicle: saline) 93 % of control; (dose: 120.0 mg/kg/injection, schedule: Q01DX Z (ip), vehicle: saline) 97 % of control; (dose: 188.0 mg/kg/injection, schedule: Q01DX Z (oral), vehicle: saline) 103 % of control; (dose: 375.0 mg/kg/injection, schedule: Q01DX Z (oral), vehicle: saline) 105 % of control. For the same molecule, the T/C (dose: 750.0 mg/kg/injection, schedule: Q01DX Z (oral), vehicle: saline) was 91 % of control.
With `Nc1ncnc2c1ncn2CCCCCCl`, the T/C reads like this: (dose: 12.5 mg/kg/injection, schedule: Q04DX003 (ip), vehicle: saline) 90 % of control; (dose: 25.0 mg/kg/injection, schedule: Q04DX003 (ip), vehicle: saline) 88 % of control; (dose: 50.0 mg/kg/injection, schedule: Q04DX003 (ip), vehicle: saline) 100 % of control.
`Cc1cccc2cccnc12`: the T/C under setting [9] was 104 % of control, the T/C under setting [10] is 106 % of control and the T/C under setting [11] is 98 % of control.
Regarding `Nc1ncnc2c1ncn2C1OC(C(O)CO)C(O)C1N` (stereo not drawn), the T/C (dose: 50.0 mg/kg/injection, schedule: Q01DX001 (ip), vehicle: carboxymethylcellulose (CMC)) is 111 % of control; the T/C (dose: 100.0 mg/kg/injection, schedule: Q01DX001 (ip), vehicle: carboxymethylcellulose (CMC)) is 105 % of control; the T/C (dose: 200.0 mg/kg/injection, schedule: Q01DX001 (ip), vehicle: carboxymethylcellulose (CMC)) was 108 % of control; the T/C under setting [12] was 108 % of control.
On to `Cc1ccc(NC(=O)N(CCCl)N=O)cc1NC(=O)N(CCCl)N=O`, for which the T/C reads like this: (dose: 177.0 mg/kg/injection, schedule: Q01DX001 (ip), vehicle: carboxymethylcellulose (CMC)) 154 % of control; (dose: 266.0 mg/kg/injection, schedule: Q01DX001 (ip), vehicle: carboxymethylcellulose (CMC)) 152 % of control; (dose: 266.0 mg/kg/injection, schedule: Q01DX009 (ip), vehicle: carboxymethylcellulose (CMC)) 152 % of control; under setting [12], 157 % of control; (dose: 400.0 mg/kg/injection, schedule: Q01DX009 (ip), vehicle: carboxymethylcellulose (CMC)) 195 % of control; (dose: 600.0 mg/kg/injection, schedule: Q01DX001 (ip), vehicle: carboxymethylcellulose (CMC)) 158 % of control. The T/C (dose: 600.0 mg/kg/injection, schedule: Q01DX009 (ip), vehicle: carboxymethylcellulose (CMC)) was 202 % of control.
As for `O=C(Cn1ccc(O)cc1=O)N1CCC2(CC1)SSC1(CCN(C(=O)Cn3ccc(O)cc3=O)CC1)S2`, the T/C reads like this: under setting [13], 86 % of control; under setting [4], 102 % of control; under setting [14], 93 % of control; under setting [5], 94 % of control; (dose: 400.0 mg/kg/injection, schedule: Q01DX009 (ip), vehicle: saline) 94 % of control; (dose: 400.0 mg/kg/injection, schedule: Q04DX003 (ip), vehicle: saline) 88 % of control.
Take `CC(C)=CCC/C(C)=C/C(=O)O`: the T/C is 100 % of control under setting [1], 93 % of control under setting [2] and 93 % of control under setting [3].
Consider `CCCCCCCCCCCSCCCCCCCCCCC`, for which the T/C is 113 % of control under setting [6], 94 % of control under setting [7] and 91 % of control under setting [8].
With `C=CCc1cc(OC)cc(C(=O)c2cccc(OC)c2C#N)c1OC`, the T/C under setting [9] is 104 % of control and 106 % of control; the T/C (dose: 100.0 mg/kg/injection, schedule: Q04DX002 (ip), vehicle: other) is 104 % of control; the T/C (dose: 100.0 mg/kg/injection, schedule: Q04DX003 (ip), vehicle: other) is 100 % of control and 92 % of control; the T/C under setting [10] was 95 % of control and 107 % of control; the T/C (dose: 200.0 mg/kg/injection, schedule: Q04DX002 (ip), vehicle: other) was 100 % of control and 92 % of control; the T/C (dose: 200.0 mg/kg/injection, schedule: Q04DX003 (ip), vehicle: other) was 100 % of control and 92 % of control. Besides, the T/C reads like this: under setting [11], 118 % of control and 90 % of control; (dose: 400.0 mg/kg/injection, schedule: Q04DX002 (ip), vehicle: other) 88 % of control and 89 % of control; (dose: 400.0 mg/kg/injection, schedule: Q04DX003 (ip), vehicle: other) 102 % of control and 92 % of control.
For `CCCCCCCCCCCCCCCC(=O)Nc1cccc2cnccc12`, the T/C runs as follows: under setting [15], 100 % of control; under setting [16], 97 % of control; under setting [17], 105 % of control.
Take `NC(N)=NCCCC(N)C(=O)NCCCCCCNC(=O)CCC(=O)NCCCCCCNC(=O)C(N)CCCN=C(N)N` (stereo not drawn): the T/C by setting is: (dose: 62.5 mg/kg/injection, schedule: Q01DX010 (ip), vehicle: saline) 94 % of control; (dose: 125.0 mg/kg/injection, schedule: Q01DX010 (ip), vehicle: saline) 98 % of control; (dose: 250.0 mg/kg/injection, schedule: Q01DX010 (ip), vehicle: saline) 100 % of control; (dose: 500.0 mg/kg/injection, schedule: Q01DX010 (ip), vehicle: saline) 113 % of control.
In the case of `CCOC(=O)C1CCCCCC1=O` (stereo not drawn), the T/C (dose: 50.0 mg/kg/injection, schedule: Q01DX009 (ip), vehicle: saline) was 110 % of control; the T/C under setting [13] is 98 % of control; the T/C (dose: 100.0 mg/kg/injection, schedule: Q04DX003 (ip), vehicle: alcohol) is 102 % of control; the T/C under setting [14] was 95 % of control; the T/C (dose: 200.0 mg/kg/injection, schedule: Q04DX003 (ip), vehicle: alcohol) was 103 % of control; the T/C (dose: 400.0 mg/kg/injection, schedule: Q04DX003 (ip), vehicle: alcohol) was 100 % of control.
With `Cc1ccc(S(=O)(=O)OCCN(CCOS(=O)(=O)c2ccc(C)cc2)S(=O)(=O)c2ccc(C)cc2)cc1`, the T/C runs as follows: (dose: 100.0 mg/kg/injection, schedule: Q01DX009 (ip), vehicle: Klucel (hydroxypropylcellulose) (HPC)) 94 % of control; under setting [15], 94 % of control; (dose: 200.0 mg/kg/injection, schedule: Q01DX009 (ip), vehicle: Klucel (hydroxypropylcellulose) (HPC)) 89 % of control; under setting [16], 91 % of control; (dose: 400.0 mg/kg/injection, schedule: Q01DX009 (ip), vehicle: Klucel (hydroxypropylcellulose) (HPC)) 96 % of control; under setting [17], 91 % of control.
